Test results as given in ChEMBL document CHEMBL3885881, “DrugMatrix”.

Species on record: Rattus norvegicus
Assay: DrugMatrix - Regimen: Daily Repeat
Format: toxicity, organism-based, Sprague-Dawley
Design: regimen Daily Repeat, gender Male, age 6-8 weeks
Settings: in vivo, iv, vehicle 100 % SALINE; for ABSOLUTE BASOPHIL / ABSOLUTE EOSINOPHIL / ABSOLUTE LYMPHOCYTE / ABSOLUTE MONOCYTE / ABSOLUTE SEGMENTED NEUTROPHIL / BASOPHIL / EOSINOPHIL / ERYTHROCYTE COUNT / HEMATOCRIT / HEMOGLOBIN / LEUKOCYTE COUNT / LYMPHOCYTE / MEAN CORPUSCULAR HEMOGLOBIN / MEAN CORPUSCULAR HEMOGLOBIN CONCENTRATION / MEAN CORPUSCULAR VOLUME / MONOCYTE / NEUTROPHIL / NUCLEATED RED BLOOD CELLS / PLATELET COUNT: tissue Blood; for ALANINE AMINOTRANSFERASE / ALBUMIN / ALKALINE PHOSPHATASE / ASPARTATE AMINOTRANSFERASE / BLOOD UREA NITROGEN / CARBON DIOXIDE / CHLORIDE / CHOLESTEROL / CREATINE PHOSPHOKINASE / CREATININE / GLUCOSE / LACTATE DEHYDROGENASE / LIPASE / PHOSPHORUS / POTASSIUM / SODIUM / TOTAL BILIRUBIN / TOTAL PROTEIN / URIC ACID: tissue Plasma
[1] = 0 mg/kg, 72 h, dose level Control, time 3 day
[2] = 0 mg/kg, 120 h, dose level Control, time 5 day
[3] = 200 mg/kg, 72 h, dose level Low, time 3 day

## CC1(C)S[C@@H]2[C@H](NC(=O)[C@H](NC(=O)N3CCNC3=O)c3ccccc3)C(=O)N2[C@H]1C(=O)O [AZLOCILLIN]
[1]
  ABSOLUTE BASOPHIL: 0 CELLS/uL
  ABSOLUTE EOSINOPHIL: 15.33 CELLS/uL
  ABSOLUTE LYMPHOCYTE: 9513.5 CELLS/uL
  ABSOLUTE MONOCYTE: 94.67 CELLS/uL
  ABSOLUTE SEGMENTED NEUTROPHIL: 709.83 CELLS/uL
  BASOPHIL: 0%
  EOSINOPHIL: 0.17%
  ERYTHROCYTE COUNT: 5.63 x10E6/uL
  HEMATOCRIT: 34.63%
  HEMOGLOBIN: 13.6 G/DL
  LEUKOCYTE COUNT: 10.33 x10E3/uL
  LYMPHOCYTE: 92%
  MEAN CORPUSCULAR HEMOGLOBIN: 24.17 pg
  MEAN CORPUSCULAR HEMOGLOBIN CONCENTRATION: 39.28 G/DL
  MEAN CORPUSCULAR VOLUME: 61.57 fL
  MONOCYTE: 0.83%
  NEUTROPHIL: 7%
  NUCLEATED RED BLOOD CELLS: 0 /100WBC
  PLATELET COUNT: 903.17 x10E3/uL
  ALANINE AMINOTRANSFERASE: 49.33 u/L
  ALBUMIN: 4.27 G/DL
  ALKALINE PHOSPHATASE: 400.83 u/L
  ASPARTATE AMINOTRANSFERASE: 77.5 u/L
  BLOOD UREA NITROGEN: 16.33 mg/dL
  CARBON DIOXIDE: 29.33 mmol/L
  CHLORIDE: 99.67 MEQ/L
  CHOLESTEROL: 66.67 mg/dL
  CREATINE PHOSPHOKINASE: 275.33 u/L
  CREATININE: 0.18 mg/dL
  GLUCOSE: 163.83 mg/dL
  LACTATE DEHYDROGENASE: 125.33 u/L
  LIPASE: 10 u/L
  PHOSPHORUS: 12.12 mg/dL
  POTASSIUM: 6.68 MEQ/L
  SODIUM: 144.02 MEQ/L
  TOTAL BILIRUBIN: 0.18 mg/dL
  TOTAL PROTEIN: 5.87 G/DL
  URIC ACID: 1.63 mg/dL
[2]
  ABSOLUTE BASOPHIL: 0 CELLS/uL
  ABSOLUTE EOSINOPHIL: 48.83 CELLS/uL
  ABSOLUTE LYMPHOCYTE: 14562 CELLS/uL
  ABSOLUTE MONOCYTE: 138.67 CELLS/uL
  ABSOLUTE SEGMENTED NEUTROPHIL: 1733.83 CELLS/uL
  BASOPHIL: 0%
  EOSINOPHIL: 0.33%
  ERYTHROCYTE COUNT: 5.89 x10E6/uL
  HEMATOCRIT: 36.7%
  HEMOGLOBIN: 14.42 G/DL
  LEUKOCYTE COUNT: 16.48 x10E3/uL
  LYMPHOCYTE: 88.83%
  MEAN CORPUSCULAR HEMOGLOBIN: 24.52 pg
  MEAN CORPUSCULAR HEMOGLOBIN CONCENTRATION: 39.3 G/DL
  MEAN CORPUSCULAR VOLUME: 62.37 fL
  MONOCYTE: 0.67%
  NEUTROPHIL: 10.17%
  NUCLEATED RED BLOOD CELLS: 0 /100WBC
  PLATELET COUNT: 1076.5 x10E3/uL
  ALANINE AMINOTRANSFERASE: 44.67 u/L
  ALBUMIN: 4.23 G/DL
  ALKALINE PHOSPHATASE: 357.33 u/L
  ASPARTATE AMINOTRANSFERASE: 84.83 u/L
  BLOOD UREA NITROGEN: 15.5 mg/dL
  CARBON DIOXIDE: 27 mmol/L
  CHLORIDE: 99.5 MEQ/L
  CHOLESTEROL: 63.67 mg/dL
  CREATINE PHOSPHOKINASE: 331.33 u/L
  CREATININE: 0.18 mg/dL
  GLUCOSE: 167.33 mg/dL
  LACTATE DEHYDROGENASE: 320.17 u/L
  LIPASE: 9.17 u/L
  PHOSPHORUS: 12.05 mg/dL
  POTASSIUM: 6.54 MEQ/L
  SODIUM: 143.02 MEQ/L
  TOTAL BILIRUBIN: 0.2 mg/dL
  TOTAL PROTEIN: 6.23 G/DL
  URIC ACID: 2.07 mg/dL
[3]
  ABSOLUTE BASOPHIL: 0 CELLS/uL
  ABSOLUTE EOSINOPHIL: 0 CELLS/uL
  ABSOLUTE LYMPHOCYTE: 12492.33 CELLS/uL
  ABSOLUTE MONOCYTE: 142.67 CELLS/uL
  ABSOLUTE SEGMENTED NEUTROPHIL: 1631.67 CELLS/uL
  BASOPHIL: 0%
  EOSINOPHIL: 0%
  ERYTHROCYTE COUNT: 5.71 x10E6/uL
  HEMATOCRIT: 37.53%
  HEMOGLOBIN: 14.67 G/DL
  LEUKOCYTE COUNT: 14.27 x10E3/uL
  LYMPHOCYTE: 87.67%
  MEAN CORPUSCULAR HEMOGLOBIN: 25.73 pg
  MEAN CORPUSCULAR HEMOGLOBIN CONCENTRATION: 39.1 G/DL
  MEAN CORPUSCULAR VOLUME: 65.8 fL
  MONOCYTE: 1%
  NEUTROPHIL: 11.33%
  NUCLEATED RED BLOOD CELLS: 0 /100WBC
  PLATELET COUNT: 1015.67 x10E3/uL
  ALANINE AMINOTRANSFERASE: 70.67 u/L
  ALBUMIN: 4.47 G/DL
  ALKALINE PHOSPHATASE: 482 u/L
  ASPARTATE AMINOTRANSFERASE: 112.67 u/L
  BLOOD UREA NITROGEN: 16.67 mg/dL
  CARBON DIOXIDE: 27.33 mmol/L
  CHLORIDE: 102.33 MEQ/L
  CHOLESTEROL: 82.67 mg/dL
  CREATINE PHOSPHOKINASE: 554 u/L
  CREATININE: 0.22 mg/dL
  GLUCOSE: 148 mg/dL
  LACTATE DEHYDROGENASE: 194.33 u/L
  LIPASE: 10 u/L
  PHOSPHORUS: 11.97 mg/dL
  POTASSIUM: 7.02 MEQ/L
  SODIUM: 145.3 MEQ/L
  TOTAL BILIRUBIN: 0.23 mg/dL
  TOTAL PROTEIN: 5.97 G/DL
  URIC ACID: 1.67 mg/dL
